In brackets after ≈: the same amount, converted by molar mass.
Legend:
Format in all cases: functional
Human alphaherpesvirus 2 = assay: Compound was tested for antiherpes activity against Herpes simplex virus-2(G) in E6SM cell cultures
Cytomegalovirus = assay: Compound was tested for antiherpes activity against Cytomegalovirus virus(AD 169) in HEL cells; details: Human betaherpesvirus 5
Human alphaherpesvirus 1 = assay: Compound was tested for antiherpes activity against Herpes simplex virus-1(KOS) in E6SM cell cultures
Human alphaherpesvirus 3 = assay: Compound was tested for antiherpes activity against Varicella zoster virus(OKA) in HEL cells

In the case of O=c1[nH]c(=O)n(C2COC(CO)C(O)C2O)cc1I (stereo not drawn), the MIC (Human alphaherpesvirus 2) is reported as 70 µg/mL (≈ 182 µM), the MIC (Cytomegalovirus) is reported as > 50 µg/mL and the MIC (Human alphaherpesvirus 1) is reported as 7 µg/mL (≈ 18.2 µM). For the same compound, the MIC (Human alphaherpesvirus 3) was > 50 µg/mL.

For O=c1ccn(C2COC(CO)C(O)C2O)c(=O)[nH]1 (stereo not drawn), the MIC (Human alphaherpesvirus 2) was > 200 µg/mL, the MIC (Cytomegalovirus) was > 50 µg/mL and the MIC (Human alphaherpesvirus 1) was 150 µg/mL (≈ 581 µM). The MIC (Human alphaherpesvirus 3) was > 50 µg/mL.

With Nc1ccn(C2COC(CO)C(O)C2O)c(=O)n1 (stereo not drawn) the MIC (Human alphaherpesvirus 2) was 70 µg/mL (≈ 272 µM), the MIC (Cytomegalovirus) was 10 µg/mL (≈ 38.9 µM) and the MIC (Human alphaherpesvirus 1) was 70 µg/mL (≈ 272 µM). For the same compound, the MIC (Human alphaherpesvirus 3) was 10 µg/mL (≈ 38.9 µM).

Nc1nc2c(ncn2COCCO)c(=O)[nH]1 [ACYCLOVIR] was tested, and the MIC (Human alphaherpesvirus 2) was 0.004 µg/mL (≈ 0.0178 µM), the MIC (Human alphaherpesvirus 1) was 0.004 µg/mL (≈ 0.0178 µM) and the MIC (Human alphaherpesvirus 3) was 0.5 µg/mL (≈ 2.22 µM).

Nc1nc2c(ncn2COC(CO)CO)c(=O)[nH]1 [GANCICLOVIR] was tested, and the MIC (Human alphaherpesvirus 2) was 0.002 µg/mL (≈ 0.00784 µM), the MIC (Cytomegalovirus) was 1 µg/mL (≈ 3.92 µM) and the MIC (Human alphaherpesvirus 1) was 0.0007 µg/mL (≈ 0.00274 µM).

Source: ChEMBL document CHEMBL1129103, “Synthesis and antiviral activity of 2-deoxy-1,5-anhydro-D-mannitol nucleosides containing a pyrimidine base moiety” (1996)
